Results taken from PMC7933318, “Engineering a lipoxygenase from cyclocybe aegerita towards long chain polyunsaturated fatty acids” (AMB Express, 2021).

Target: T1, CaeLox1 (Cyclocybe aegerita, UniProt A0A8A1QR86)
T1 construct: gene LOX1; codon-optimized cDNA in pET28a, E. coli BL21-Gold (DE3), Ni-NTA purified
T1 sequence (A0A8A1QR86 1-656): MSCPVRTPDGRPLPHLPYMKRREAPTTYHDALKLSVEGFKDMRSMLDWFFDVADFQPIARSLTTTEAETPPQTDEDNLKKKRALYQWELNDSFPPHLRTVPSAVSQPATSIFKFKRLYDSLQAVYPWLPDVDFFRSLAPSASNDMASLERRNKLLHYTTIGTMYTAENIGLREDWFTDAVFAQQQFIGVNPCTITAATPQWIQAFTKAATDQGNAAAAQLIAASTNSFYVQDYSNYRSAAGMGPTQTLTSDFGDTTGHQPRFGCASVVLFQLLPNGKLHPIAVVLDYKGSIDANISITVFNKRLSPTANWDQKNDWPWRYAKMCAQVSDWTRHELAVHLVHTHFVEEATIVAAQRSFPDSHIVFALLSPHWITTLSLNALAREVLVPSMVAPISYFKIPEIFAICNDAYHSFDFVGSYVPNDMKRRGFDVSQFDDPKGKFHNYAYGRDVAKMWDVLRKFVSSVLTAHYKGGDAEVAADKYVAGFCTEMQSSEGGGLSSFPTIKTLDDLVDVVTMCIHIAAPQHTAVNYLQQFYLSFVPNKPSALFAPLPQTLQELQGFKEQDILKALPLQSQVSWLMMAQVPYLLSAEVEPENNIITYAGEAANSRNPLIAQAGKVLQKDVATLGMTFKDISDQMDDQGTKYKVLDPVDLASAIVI
Assay: conjugated diene formation at […] nm, specific activity
Format: biochemical
Settings: 1.25 mM PUFA, 50 mM phosphate pH 7.5, 25 °C

With CCCCC/C=C\C/C=C\CCCCCCCC(=O)O [LA, linoleic acid] the specific activity was “we investigated the specific activities of PUFAs occurring (linoleic acid, linolenic acid)”.
